For assay [1], the target named is T1, Carbonic anhydrase 2 (Homo sapiens, UniProt P00918). The experiment in a line: Binding affinity to GST-fused human carbonic anhydrase-2 expressed in Escherichia coli BL21 codon plus cells assessed as steady state dissociation constant by SPR method. On the technique in general: Surface plasmon resonance follows binding to a sensor surface in real time, without labels.

Assay [2] deals with T1, Carbonic anhydrase 2. The experiment in a line: Binding affinity to GST-fused human carbonic anhydrase-2 expressed in Escherichia coli BL21 codon plus cells assessed as dissociation constant by SPR method.

For the compound `CCCc1ccc(S(N)(=O)=O)cc1`, the Kd at Carbonic anhydrase 2 [1] worked out at 60.6 µM; at Carbonic anhydrase 2 [2], 57.8 µM.

As to `CCc1ccc(S(N)(=O)=O)cc1`, the Kd at Carbonic anhydrase 2 [1] was found to be 125 µM; at Carbonic anhydrase 2 [2] it was 98.3 µM.

One may read the Kd as the equilibrium constant for the complex coming apart.

The values above are taken from ChEMBL document CHEMBL3817775, “Kinetic and Structural Insights into the Mechanism of Binding of Sulfonamides to Human Carbonic Anhydrase by Computational and Experimental Studies” (J Med Chem, 2016).
